From ChEMBL document CHEMBL1201862, “PubChem BioAssay data set” (2004)
Values joined by “and” are separate entries in the source; they are usually repeats but may differ in a detail not shown here. Equal entries are not always repeated.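 Dose response: 5 concentrations. Exposure: 48 h. Format: 96-well plates. Endpoint: linear interpolation; highest concentration if not reached. GI50 = concentration required for 50% inhibition of growth.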 Active and inactive are the calls of the source. Rule as the data show it: active = GI50 up to about 1.1 µM and inactive = higher.

What was measured:
Assay in all cases: NCI anticancer screen, dose series, 48 h
[1] = test system: A549
[2] = test system: ACHN
[3] = test system: CAKI-1
[4] = test system: COLO 205
[5] = test system: HCT-116
[6] = test system: KM12
[7] = test system: MDA-MB-231
[8] = test system: Malme-3M
[9] = test system: NCI-H226
[10] = test system: OVCAR-4
[11] = test system: OVCAR-5
[12] = test system: OVCAR-8
[13] = test system: RPMI-8226
[14] = test system: SF-268
[15] = test system: SF-539
[16] = test system: SK-MEL-2
[17] = test system: SN12C
[18] = test system: SR
[19] = test system: UO-31
[20] = test system: CCRF-CEM

SMILES	GI50 [1]	GI50 [2]	GI50 [3]	GI50 [4]	GI50 [5]	GI50 [6]	GI50 [7]	GI50 [8]	GI50 [9]	GI50 [10]	GI50 [11]	GI50 [12]	GI50 [13]	GI50 [14]	GI50 [15]	GI50 [16]	GI50 [17]	GI50 [18]	GI50 [19]	GI50 [20]
CCOP(=O)(OCC)/C(C#N)=C/c1c[nH]c2ccccc12	> 100 µM (inactive)	> 100 µM (inactive)	> 100 µM (inactive)	> 100 µM (inactive)	> 100 µM (inactive)	> 100 µM (inactive)	> 100 µM (inactive)	> 100 µM (inactive)	> 100 µM (inactive)	> 100 µM (inactive)	> 100 µM (inactive)	> 100 µM (inactive)	90.4 µM (inactive)	> 100 µM (inactive)	> 100 µM (inactive)	> 100 µM (inactive)	> 100 µM (inactive)	> 100 µM (inactive)	45.8 µM (inactive)	
COc1ccc(/C=C2\C[C@H]3[C@@H]4CC=C5C[C@@H](O)CC[C@]5(C)[C@H]4CC[C@]3(C)\C2=N\O)cc1	7.98 µM (inactive)	19.5 µM (inactive)	2.58 µM (inactive)	10 µM (inactive)	5.35 µM (inactive)	16.8 µM (inactive)	35.2 µM (inactive)	24.9 µM (inactive)	19.3 µM (inactive)	51.5 µM (inactive)			2.26 µM (inactive)	4.95 µM (inactive)	21.8 µM (inactive)	15.6 µM (inactive)	18.1 µM (inactive)	1.89 µM (inactive)	14.3 µM (inactive)	4.58 µM (inactive)
CC(C)(C)[Si](C)(C)OCC#C[C@@]1(O)CCCCC1CC(Sc1ccccc1)Sc1ccccc1 (stereo not given in full)	14.9 µM (inactive)	14.4 µM (inactive)	10.7 µM (inactive)	16.3 µM (inactive)	11.8 µM (inactive)	21.9 µM (inactive)	16.9 µM (inactive)	16.1 µM (inactive)	15.3 µM (inactive)	13.9 µM (inactive)	14.2 µM (inactive)	16.5 µM (inactive)	15.3 µM (inactive)			15.8 µM (inactive)	11.6 µM (inactive)	14.8 µM (inactive)	13.9 µM (inactive)	11.8 µM (inactive)
Cc1cccc(C2ON=C(c3ccccc3)N2C23CC4CC(CC(C4)C2)C3)c1 (stereo not given)	> 10 µM (inactive)	> 10 µM (inactive)	> 10 µM (inactive)	> 10 µM (inactive)	> 10 µM (inactive)	> 10 µM (inactive)	> 10 µM (inactive)	> 10 µM (inactive)	> 10 µM (inactive)	> 10 µM (inactive)	> 10 µM (inactive)	> 10 µM (inactive)	> 10 µM (inactive)	> 10 µM (inactive)	> 10 µM (inactive)	> 10 µM (inactive)	> 10 µM (inactive)	> 10 µM (inactive)		> 10 µM (inactive)
CNC(=O)C1CCCN1C(=O)C(Cc1c[nH]cn1)NC(=O)C1CCC(=O)N1 (stereo not given)	> 100 µM (inactive)	> 100 µM (inactive)	> 100 µM (inactive)	> 100 µM (inactive)	> 100 µM (inactive)	> 100 µM (inactive)	> 100 µM (inactive)	> 100 µM (inactive)	> 100 µM (inactive)	> 100 µM (inactive)	> 100 µM (inactive)	> 100 µM (inactive)	> 100 µM (inactive)	> 100 µM (inactive)			> 100 µM (inactive)	> 100 µM (inactive)	> 100 µM (inactive)	> 100 µM (inactive)
O=C(O)c1cccc(S(=O)(=O)NN2C(=O)CSC2c2ccccc2)c1 (stereo not given)	> 100 µM (inactive)	> 100 µM (inactive)	> 100 µM (inactive)	> 100 µM (inactive)	> 100 µM (inactive)	> 100 µM (inactive)	> 100 µM (inactive)	> 100 µM (inactive)	> 100 µM (inactive)		> 100 µM (inactive)	> 100 µM (inactive)	35.3 µM (inactive)	> 100 µM (inactive)	> 100 µM (inactive)	> 100 µM (inactive)	> 100 µM (inactive)	32.9 µM (inactive)	> 100 µM (inactive)	> 100 µM (inactive)
COc1cccc(-c2cc(O)c3cc(C)cnc3n2)c1	0.0776 µM (active)	0.0625 µM (active)	0.0389 µM (active)	0.0449 µM (active)	0.0323 µM (active)	0.0885 µM (active)	0.415 µM (active)		0.0757 µM (active)	> 67.1 µM (inactive)	0.82 µM (active)	0.0658 µM (active)	0.0421 µM (active)	0.594 µM (active)	0.0371 µM (active)	0.0293 µM (active)	0.0538 µM (active)	0.0297 µM (active)	1.26 µM (inactive)	0.0366 µM (active)
OC(c1cccnc1)C(F)(F)c1nc2ccccc2o1 (stereo not given)		> 100 µM (inactive)	> 100 µM (inactive)	> 100 µM (inactive)	> 100 µM (inactive)	> 100 µM (inactive)	> 100 µM (inactive)		> 100 µM (inactive)	> 100 µM (inactive)		> 100 µM (inactive)	> 100 µM (inactive)	> 100 µM (inactive)	> 100 µM (inactive)	> 100 µM (inactive)		> 100 µM (inactive)	> 100 µM (inactive)	> 100 µM (inactive)
COC(CNC(=O)C(C)NC(=O)/C=C/c1ccccc1)OC (stereo not given)	> 100 µM (inactive)	> 100 µM (inactive)	> 100 µM (inactive)	> 100 µM (inactive)	> 100 µM (inactive)	> 100 µM (inactive)	> 100 µM (inactive)	> 100 µM (inactive)	> 100 µM (inactive)		> 100 µM (inactive)	> 100 µM (inactive)	> 100 µM (inactive)	> 100 µM (inactive)	> 100 µM (inactive)	> 100 µM (inactive)	> 100 µM (inactive)	> 100 µM (inactive)	> 100 µM (inactive)	> 100 µM (inactive)
CC(=O)OCC1OC(SC2=NC(=O)CS2)C(OC(C)=O)C(OC(C)=O)C1OC(C)=O (stereo not given)	> 100 µM (inactive)	> 100 µM (inactive)	68.7 µM (inactive)			> 100 µM (inactive)	> 100 µM (inactive)	> 100 µM (inactive)	> 100 µM (inactive)		> 100 µM (inactive)	> 100 µM (inactive)	51.8 µM (inactive) and 27.4 µM (inactive)	> 100 µM (inactive)	> 100 µM (inactive)		> 100 µM (inactive)	39.6 µM (inactive) and 67.5 µM (inactive)	> 100 µM (inactive)	31.5 µM (inactive) and 32.3 µM (inactive)
N#C[C@@]12CCCC(=O)[C@@H]1[C@H]1CCC[C@H]12	16.7 µM (inactive)	17.7 µM (inactive)	16.3 µM (inactive)	20 µM (inactive)	15.5 µM (inactive)	13.3 µM (inactive)	14.6 µM (inactive)	13.6 µM (inactive)	20.7 µM (inactive)	21.3 µM (inactive)	9.46 µM (inactive)	21.6 µM (inactive)	11 µM (inactive)		23.7 µM (inactive)	16.9 µM (inactive)	16.4 µM (inactive)	26.1 µM (inactive)	16.1 µM (inactive)	16.6 µM (inactive)
COC(=O)C1=CS/C(=C2\S[C@@H]3[C@H](S2)[C@H]2C=C[C@@H]3C2)S1	30.8 µM (inactive)		7.14 µM (inactive)	32.8 µM (inactive)	8.09 µM (inactive)	> 100 µM (inactive)	> 100 µM (inactive)	> 100 µM (inactive)	87.7 µM (inactive)	> 100 µM (inactive)		> 100 µM (inactive)	30.7 µM (inactive)	38.7 µM (inactive)	6.19 µM (inactive)	32.5 µM (inactive)	> 100 µM (inactive)	3.4 µM (inactive)	46.1 µM (inactive)	17.6 µM (inactive)
O=C1c2c(Cl)c(Cl)c(Cl)c(Cl)c2C(=O)N1CCN(c1c(Cl)ssc1=O)c1c(Cl)ssc1=O	> 100 µM (inactive)	18.2 µM (inactive)	17.5 µM (inactive)	18.2 µM (inactive)	16.1 µM (inactive)	54.8 µM (inactive)	36.1 µM (inactive)	25.2 µM (inactive)	> 100 µM (inactive)	18.2 µM (inactive)	50.1 µM (inactive)	21.7 µM (inactive)		71.9 µM (inactive)	19.1 µM (inactive)	24.2 µM (inactive)	23.4 µM (inactive)	20 µM (inactive)	18.2 µM (inactive)	4.36 µM (inactive)
O=C(NO)c1ccc(OCc2ccccc2)cc1	33 µM (inactive)	22.3 µM (inactive)	18.1 µM (inactive)	22.8 µM (inactive)	12.1 µM (inactive)	25.5 µM (inactive)	26.8 µM (inactive)		> 100 µM (inactive)	15 µM (inactive)	27.4 µM (inactive)	6.71 µM (inactive)	12 µM (inactive)	39.7 µM (inactive)	28.7 µM (inactive)	30.3 µM (inactive)	43.4 µM (inactive)	14.1 µM (inactive)	22.2 µM (inactive)	6.89 µM (inactive)
CC(C)(C)NCC(O)COc1cccc2[nH]c(C#N)cc12 (stereo not given) [CYANOPINDOLOL]	> 100 µM (inactive)	> 100 µM (inactive)	> 100 µM (inactive)	56 µM (inactive)	> 100 µM (inactive)	> 100 µM (inactive)	> 100 µM (inactive)	> 100 µM (inactive)	> 100 µM (inactive)	> 100 µM (inactive)	> 100 µM (inactive)	> 100 µM (inactive)	> 100 µM (inactive)	> 100 µM (inactive)	> 100 µM (inactive)	> 100 µM (inactive)	> 100 µM (inactive)	> 100 µM (inactive)	> 100 µM (inactive)	
